Consider five compounds from the RepoRT retention time repository (doi:10.1016/j.jchromb.2020.122105).

Each structure is given as a SMILES string.

Holding throughout (settings): stereoisomer not certain
Series [1] in a line: RP, Waters CORTECS T3, 100 × 2.1 mm, 2.7 µm, 0.3 mL/min, estimated dead time 0.73 min; A: water + 0.1% formic acid, pH 3; B: methanol + 0.1% formic acid, pH 3; gradient (min/%B) 0/5 5/5 25/100 30/100 30.1/5 35/5.
Series [2] can be described thus: RP, Waters ACQUITY UPLC BEH C18, 100 × 2.1 mm, 1.7 µm, 0.2 mL/min, estimated dead time 1.1 min; A: water + 0.025% formic acid + 20 mM ammonium acetate + 0.055% ammonium hydroxide, pH 7; B: methanol; gradient (min/%B) 0/5 5/5 25/100 30/100 30.1/5 35/5.
Series [3] in a line: RP, Waters CORTECS T3, 100 × 2.1 mm, 2.7 µm, 0.3 mL/min, estimated dead time 0.73 min; A: water + 0.1% formic acid, pH 3; B: methanol + 0.1% formic acid, pH 3; gradient (min/%B) 0/0 5/0 25/100 30/100 30.1/0 35/0.
The nature of series [4]: RP, Waters ACQUITY UPLC BEH C18, 100 × 2.1 mm, 1.7 µm, 0.1 mL/min, estimated dead time 2.2 min; A: water + 0.1% formic acid, pH 3; B: methanol + 0.1% formic acid, pH 3; gradient (min/%B) 0/5 5/5 25/100 30/100 30.1/5 35/5.
The nature of series [5]: RP, Waters ACQUITY UPLC BEH C18, 100 × 2.1 mm, 1.7 µm, 0.1 mL/min, estimated dead time 2.2 min; A: water + 0.1% formic acid, pH 3; B: methanol + 0.1% formic acid, pH 3; gradient (min/%B) 0/5 5/5 25/95 25.1/100 35/100 35.1/5 45/5.
Series [6] is described as follows: RP, Waters CORTECS T3, 100 × 2.1 mm, 2.7 µm, 0.3 mL/min, estimated dead time 0.73 min; A: water + 0.1% formic acid, pH 3; B: methanol + 0.1% formic acid, pH 3; gradient (min/%B) 0/0 5/0 25/100 30/100 30.1/0 35/0. The source holds these as a separate data set.
Series [7] can be described thus: RP, Waters CORTECS T3, 100 × 2.1 mm, 2.7 µm, 0.25 mL/min, estimated dead time 0.88 min; A: water + 0.1% formic acid, pH 3; B: methanol + 0.1% formic acid, pH 3; gradient (min/%B) 0/5 5/5 25/95 25.1/100 35/100 35.1/5 45/5.
A short description of series [8]: RP, Waters CORTECS T3, 100 × 2.1 mm, 2.7 µm, 0.2 mL/min, estimated dead time 1.1 min; A: water + 0.045% formic acid + 0.11% ammonium hydroxide, pH 7; B: methanol; gradient (min/%B) 0/5 5/5 25/95 25.1/100 35/100 35.1/5 45/5.
A short description of series [9]: RP, Waters ACQUITY UPLC BEH C18, 100 × 2.1 mm, 1.7 µm, 0.2 mL/min, estimated dead time 1.1 min; A: water + 0.1% formic acid, pH 3; B: methanol + 0.1% formic acid, pH 3; gradient (min/%B) 0/5 5/5 25/100 30/100 30.1/5 35/5.
Series [10] is described as follows: HILIC, Merck SeQuant ZIC-HILIC, 150 × 2.1 mm, 5 µm, 0.75 mL/min, estimated dead time 0.44 min; A: water + 10 mM ammonium formate, pH 6; B: 5% water + 95% acetonitrile + 10 mM ammonium formate, pH 6; gradient (min/%B) 0/95 5/95 20/57 25/57 30/95 40/95.
Series [11] is described as follows: HILIC, Merck SeQuant ZIC-HILIC, 150 × 2.1 mm, 5 µm, 0.75 mL/min, estimated dead time 0.44 min; A: water + 0.1% acetic acid + 10 mM ammonium acetate, pH 4; B: 5% water + 95% acetonitrile + 0.1% acetic acid + 10 mM ammonium acetate, pH 4; gradient (min/%B) 0/95 5/95 20/57 25/57 30/95 40/95.
A short description of series [12]: RP, Waters CORTECS T3, 100 × 2.1 mm, 2.7 µm, 0.1 mL/min, estimated dead time 2.2 min; A: water + 0.1% formic acid, pH 3; B: methanol + 0.1% formic acid, pH 3; gradient (min/%B) 0/5 5/5 25/95 25.1/100 35/100 35.1/5 45/5.
Series [13] in a line: RP, Waters ACQUITY UPLC BEH C18, 100 × 2.1 mm, 1.7 µm, 0.2 mL/min, estimated dead time 1.1 min; A: water + 0.025% formic acid + 20 mM ammonium acetate + 0.055% ammonium hydroxide, pH 7; B: methanol; gradient (min/%B) 0/5 5/5 25/100 30/100 30.1/5 35/5. The source holds these as a separate data set.
Series [14] in a line: RP, Waters CORTECS T3, 100 × 2.1 mm, 2.7 µm, 0.15 mL/min, estimated dead time 1.5 min; A: water + 0.1% formic acid, pH 3; B: methanol + 0.1% formic acid, pH 3; gradient (min/%B) 0/5 5/5 25/95 25.1/100 35/100 35.1/5 45/5.
A short description of series [15]: RP, Waters CORTECS T3, 100 × 2.1 mm, 2.7 µm, 0.2 mL/min, estimated dead time 1.1 min; A: water + 0.1% formic acid, pH 3; B: methanol + 0.1% formic acid, pH 3; gradient (min/%B) 0/0 1/0 6/5 30/100 35/100 35.1/0 40/0.
Series [16] can be described thus: RP, Thermo Scientific Hypercarb, 150 × 2.1 mm, 5 µm, 0.1 mL/min, estimated dead time 3.3 min; A: water + 0.1% formic acid, pH 3; B: methanol + 0.1% formic acid, pH 3; gradient (min/%B) 0/5 5/5 20/100 35/100 35.1/5 45/5.
A short description of series [17]: RP, Waters CORTECS T3, 100 × 2.1 mm, 2.7 µm, 0.1 mL/min, estimated dead time 2.2 min; A: water + 0.1% formic acid, pH 3; B: methanol + 0.1% formic acid, pH 3; gradient (min/%B) 0/0 1/0 6/5 30/100 35/100 35.1/0 40/0.
Series [18] can be described thus: RP, Waters CORTECS T3, 100 × 2.1 mm, 2.7 µm, 0.15 mL/min, estimated dead time 1.5 min; A: water + 0.1% formic acid, pH 3; B: methanol + 0.1% formic acid, pH 3; gradient (min/%B) 0/0 1/0 6/5 30/100 35/100 35.1/0 40/0.
A short description of series [19]: RP, Waters ACQUITY UPLC BEH C18, 100 × 2.1 mm, 1.7 µm, 0.1 mL/min, estimated dead time 2.2 min; A: water + 0.1% formic acid, pH 3; B: methanol + 0.1% formic acid, pH 3; gradient (min/%B) 0/5 5/5 25/95 25.1/100 35/100 35.1/5 45/5. The source holds these as a separate data set.
The nature of series [20]: RP, Waters CORTECS T3, 100 × 2.1 mm, 2.7 µm, 0.3 mL/min, estimated dead time 0.73 min; A: water + 0.1% formic acid, pH 3; B: methanol + 0.1% formic acid, pH 3; gradient (min/%B) 0/0 1/0 6/5 30/100 35/100 35.1/0 40/0.
Assay in series [21]: as above
The source holds these as a separate data set.

Series [22] is described as follows: RP, Waters CORTECS T3, 100 × 2.1 mm, 2.7 µm, 0.2 mL/min, estimated dead time 1.1 min; A: water + 0.1% formic acid, pH 3; B: methanol + 0.1% formic acid, pH 3; gradient (min/%B) 0/0 1/0 6/5 30/100 35/100 35.1/0 40/0. The source holds these as a separate data set.
A short description of series [23]: RP, Waters ACQUITY UPLC BEH C18, 100 × 2.1 mm, 1.7 µm, 0.1 mL/min, estimated dead time 2.2 min; A: water + 0.1% formic acid, pH 3; B: methanol + 0.1% formic acid, pH 3; gradient (min/%B) 0/5 5/5 25/95 25.1/100 35/100 35.1/5 45/5. This is another data set of the same source.
A short description of series [24]: RP, Waters CORTECS T3, 100 × 2.1 mm, 2.7 µm, 0.3 mL/min, estimated dead time 0.73 min; A: water + 0.1% formic acid, pH 3; B: methanol + 0.1% formic acid, pH 3; gradient (min/%B) 0/5 5/5 25/95 25.1/100 35/100 35.1/5 45/5.
Series [25] in a line: RP, Waters CORTECS T3, 100 × 2.1 mm, 2.7 µm, 0.25 mL/min, estimated dead time 0.88 min; A: water + 0.1% formic acid, pH 3; B: methanol + 0.1% formic acid, pH 3; gradient (min/%B) 0/0 1/0 6/5 30/100 35/100 35.1/0 40/0.
Series [26] is described as follows: RP, Waters ACQUITY UPLC BEH C18, 100 × 2.1 mm, 1.7 µm, 0.1 mL/min, estimated dead time 2.2 min; A: water + 0.045% formic acid + 0.11% ammonium hydroxide, pH 7; B: methanol; gradient (min/%B) 0/5 5/5 25/95 25.1/100 35/100 35.1/5 45/5.

Turning to `O=C(O)CCCCC1SCC2NC(=O)NC21` (configuration not stated) [BIOTIN], the LC retention time in series [1] was 10.7 min; in series [2] it was 3.98 min; in series [3] it was 11.7 min; in [4] it was 15.2 min; in series [5], 15.5 min; in series [6] it was 11.7 min. Further, the LC retention time in [7] was 11.4 min; in series [8], 1.35 min; in [9], 12.1 min; in series [10] it was 7.34 min; in [11] it was 8.19 min; in series [12], 15.3 min. Moreover, the LC retention time in series [13] is 6.2 min; in [14], 13.3 min; in series [15] it was 13.7 min; in series [16], 30.7 min; in [17], 12.1 min; in series [18] it was 14.9 min. Moreover, the LC retention time was 15.5 min in series [19] and 12.3 min in series [20].
`O=C(O)c1ccc(=O)[nH]c1` [6-HYDROXYNICOTINATE]: the LC retention time in series [1] is 2.27 min; in series [3], 3.6 min; in [4], 6.36 min; in series [21], 3.45 min; in series [22] it was 5.13 min; in series [5] it was 6.29 min. For the same compound, the LC retention time in series [23] was 2.75 min; in [12] it was 6.46 min; in [17], 3.28 min; in [18], 6.98 min; in series [24], 2.17 min; in [25], 4.17 min.
Take `CCCCCCCCCCCCCCCC(O)C(N)CO` (configuration not stated) [SPHINGANINE]: the LC retention time was 29.1 min in series [26]; 22.2 min in series [1]; 22.4 min in series [3]; 26.4 min in series [4]; 26.1 min in series [21]; 27.4 min in [22]. The LC retention time in series [5] is 28.1 min; in [23], 27.9 min; in series [12], 26.6 min; in series [17], 24.1 min; in series [18], 28.2 min; in [24], 23 min. In addition, the LC retention time in series [25] was 26.6 min.
As for `Nc1nc2nc[nH]c2c(=O)[nH]1` [GUANINE], the LC retention time in series [1] was 2.45 min; in series [4], 2.74 min; in series [22] it was 6.86 min; in series [5], 2.66 min; in series [23], 2.66 min; in series [12], 2.71 min. In addition, the LC retention time is 3.48 min in series [17], 9.27 min in series [18], 2.38 min in series [24] and 5.85 min in series [25].
Turning to `NC(Cc1ccc(Oc2cc(I)c(O)c(I)c2)c(I)c1)C(=O)O` (configuration not stated) [3,3',5'-TRIIODOTHYRONINE], the LC retention time is 17.3 min in [1]; 17.9 min in series [3]; 21.6 min in series [4]; 20.2 min in [21]; 21.4 min in series [22]; 22.2 min in series [5]. Also, the LC retention time in series [23] was 22.2 min; in [12], 21.8 min; in series [17], 19.1 min; in series [18], 22.5 min; in [24], 17.9 min; in series [25], 20.8 min.
